# From publication PMC10165273, “Itch receptor MRGPRX4 interacts with the receptor activity–modifying proteins” (The Journal of Biological Chemistry, 2023)
# Where two headings read alike, the source gives them in different places.
# Target: T1, MRGPRX4 (Homo sapiens, UniProt Q96LA9)
# T1 construct: expressed in transfected cells; host or cells: HEK293T
# Test: IP1 accumulation HTRF assay, MRGPRX4
# Assay type: cell-based
# Conditions: 2 h; for activation at 80 µM: log [agonist] (M) -4.09691; for activation at 16 µM: log [agonist] (M) -4.79588; for activation at 3.2 µM: log [agonist] (M) -5.49485; for activation at 0.64 µM: log [agonist] (M) -6.19382; for activation at 0.128 µM: log [agonist] (M) -6.89279; for activation at 0.0256 µM: log [agonist] (M) -7.59176
# Procedure: HEK293T cells were transfected with 1 pg/cell of MRGPRX4 DNA, and the amount of DNA was kept constant at 2 pg/cell with pcDNA3.1(+) empty vector, unless otherwise specified. Twenty four hours after transfection, IP1 assay was performed as previously described ([51]). When applicable, cells were treated with 1 μM YM254890 (YM) or different concentrations of U73122 for 1 h prior to addition of agonist or buffer. After incubation for 2 h, HTRF reagents and IP1 calibration standards were added and incubated for 2 h in the dark at room temperature. Time-resolved fluorescence signals were read on the BioTek Synergy NEO-TRF Hybrid multi-mode reader (BioTek Instruments). All data were carried out in three independent experiments with three technical replicate each.
# For characterization of the Tet-On Nluc-HT7-MRGPRX4-GFP10-1D4 construct, HEK293T cells were transfected as previously described with some modifications. Dox dose-response of NLuc-HT7-MRGPRX4-GFP10-1D4 DNA titration was assayed by transfecting HEK293T cells with either 1 or 2 pg/cell of NLuc-HT7-MRGPRX4-GFP10-1D4 construct. Receptor expression was induced 4 h after transfection with addition of different concentrations of dox for 20 h. For the RAMP DNA titration assay, cells were cotransfected with a constant amount of 1 pg/cell of NLuc-HT7-MRGPRX4-GFP10-1D4 DNA and 1, 0.75, 0.5, or 0 pg/cell of each HA-RAMP-OLLAS with the homogenous transfection method. Four hours after transfection, receptor expression was induced with addition of 1000 ng/ml dox. Twenty hours after induction, IP1 assay was performed.
# Data reduction, standard calibration, and transformation of HTRF data were performed as previously described ([51]). Normalized IP1 values were calculated relative to the unstimulated mock-transfected cells (set to 0%) and fully stimulated MRGPRX4 (alone if applicable) (set to 100%).
# [1] = SP-FLAG-Nluc-HT7-MRGX4_Tet-GFP10-1D4, read-out: normalized IP1 accumulation
# [2] = SP-FLAG-Nluc-HT7-MRGX4_Tet-GFP10-1D4 no dox, read-out: normalized IP1 accumulation
# T1 sequence (Q96LA9 whole entry): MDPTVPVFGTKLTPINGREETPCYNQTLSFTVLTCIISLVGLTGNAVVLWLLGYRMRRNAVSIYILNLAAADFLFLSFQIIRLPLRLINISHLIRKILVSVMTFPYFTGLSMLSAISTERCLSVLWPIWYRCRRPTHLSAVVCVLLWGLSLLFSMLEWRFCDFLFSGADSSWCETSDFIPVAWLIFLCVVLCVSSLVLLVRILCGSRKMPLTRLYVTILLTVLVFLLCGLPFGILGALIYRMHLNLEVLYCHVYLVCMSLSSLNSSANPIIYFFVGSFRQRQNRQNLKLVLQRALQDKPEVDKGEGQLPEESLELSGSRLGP
smiles,measurement,setting,value
"C[C@H](CCC(=O)O)[C@H]1CC[C@H]2[C@@H]3CC[C@@H]4C[C@H](O)CC[C@]4(C)[C@H]3C[C@H](O)[C@]12C [DCA, deoxycholic acid]",activation at 100 µM,"HA-MRGX4-1D4, log [agonist] (M) -4, read-out: normalized IP1 accumulation",53.9%
same,activation at 20 µM,"HA-MRGX4-1D4, log [agonist] (M) -4.69897, read-out: normalized IP1 accumulation",34.3%
same,activation at 4 µM,"HA-MRGX4-1D4, log [agonist] (M) -5.39794, read-out: normalized IP1 accumulation",19.4%
same,activation at 0.8 µM,"HA-MRGX4-1D4, log [agonist] (M) -6.09691, read-out: normalized IP1 accumulation",12.4%
same,activation at […],"HA-MRGX4-1D4, log [agonist] (M) -6.79588, read-out: normalized IP1 accumulation",11.1%
same,activation at 0.032 µM,"HA-MRGX4-1D4, log [agonist] (M) -7.49485, read-out: normalized IP1 accumulation",11.4%
same,activation at 100 µM,"MRGPRX4: 0.25pg/cell, log [DCA] (M) -4, Fig S1c, read-out: IP1 accumulation",41.7%
same,activation at 20 µM,"MRGPRX4: 0.25pg/cell, log [DCA] (M) -4.69897, Fig S1c, read-out: IP1 accumulation",28.7%
same,activation at 4 µM,"MRGPRX4: 0.25pg/cell, log [DCA] (M) -5.39794, Fig S1c, read-out: IP1 accumulation",10.1%
same,activation at 100 µM,"MRGPRX4: 0.5pg/cell, log [DCA] (M) -4, Fig S1c, read-out: IP1 accumulation",53.6%
same,activation at 20 µM,"MRGPRX4: 0.5pg/cell, log [DCA] (M) -4.69897, Fig S1c, read-out: IP1 accumulation",33.8%
same,activation at 4 µM,"MRGPRX4: 0.5pg/cell, log [DCA] (M) -5.39794, Fig S1c, read-out: IP1 accumulation",14.2%
same,activation at 0.8 µM,"MRGPRX4: 0.5pg/cell, log [DCA] (M) -6.09691, Fig S1c, read-out: IP1 accumulation",7.76%
same,activation at […],"MRGPRX4: 0.5pg/cell, log [DCA] (M) -6.79588, Fig S1c, read-out: IP1 accumulation",7.83%
same,activation at 0.032 µM,"MRGPRX4: 0.5pg/cell, log [DCA] (M) -7.49485, Fig S1c, read-out: IP1 accumulation",6.46%
same,activation at 100 µM,"MRGPRX4: 1pg/cell, log [DCA] (M) -4, Fig S1c, read-out: IP1 accumulation",62.8%
same,activation at 20 µM,"MRGPRX4: 1pg/cell, log [DCA] (M) -4.69897, Fig S1c, read-out: IP1 accumulation",42.9%
same,activation at 4 µM,"MRGPRX4: 1pg/cell, log [DCA] (M) -5.39794, Fig S1c, read-out: IP1 accumulation",19.8%
same,activation at 0.8 µM,"MRGPRX4: 1pg/cell, log [DCA] (M) -6.09691, Fig S1c, read-out: IP1 accumulation",13.1%
same,activation at […],"MRGPRX4: 1pg/cell, log [DCA] (M) -6.79588, Fig S1c, read-out: IP1 accumulation",10.7%
same,activation at 0.032 µM,"MRGPRX4: 1pg/cell, log [DCA] (M) -7.49485, Fig S1c, read-out: IP1 accumulation",8.32%
same,activation at 100 µM,"MRGPRX4: 2pg/cell, log [DCA] (M) -4, Fig S1c, read-out: IP1 accumulation",79.9%
same,activation at 20 µM,"MRGPRX4: 2pg/cell, log [DCA] (M) -4.69897, Fig S1c, read-out: IP1 accumulation",51.7%
same,activation at 4 µM,"MRGPRX4: 2pg/cell, log [DCA] (M) -5.39794, Fig S1c, read-out: IP1 accumulation",26.6%
same,activation at 0.8 µM,"MRGPRX4: 2pg/cell, log [DCA] (M) -6.09691, Fig S1c, read-out: IP1 accumulation",15.7%
same,activation at […],"MRGPRX4: 2pg/cell, log [DCA] (M) -6.79588, Fig S1c, read-out: IP1 accumulation",15.1%
same,activation at 0.032 µM,"MRGPRX4: 2pg/cell, log [DCA] (M) -7.49485, Fig S1c, read-out: IP1 accumulation",14.6%
same,activation at 100 µM,"MRGPRX4: […], log [DCA] (M) -4, Fig S1c, read-out: IP1 accumulation",38.8%
same,activation at 20 µM,"MRGPRX4: […], log [DCA] (M) -4.69897, Fig S1c, read-out: IP1 accumulation",21.2%
same,activation at 4 µM,"MRGPRX4: […], log [DCA] (M) -5.39794, Fig S1c, read-out: IP1 accumulation",7.81%
same,activation at 0.8 µM,"MRGPRX4: […], log [DCA] (M) -6.09691, Fig S1c, read-out: IP1 accumulation",3.51%
same,activation at 0.032 µM,"MRGPRX4: […], log [DCA] (M) -7.49485, Fig S1c, read-out: IP1 accumulation",3.48%
same,activation at 10 µM,"MRGPRX4, DCA 10uM, Fig S1d",28.4%
same,activation at 100 µM,"MRGPRX4, DCA 100uM, Fig S1d, read-out: IP1 accumulation",60.7%
same,activation at 100 µM,"MRGPRX4 alone, log [DCA] (M) -4, Fig S3d-f, read-out: IP1 accumulation",100%
same,activation at 20 µM,"MRGPRX4 alone, log [DCA] (M) -4.69897, Fig S3d-f, read-out: IP1 accumulation",66.8%
same,activation at 4 µM,"MRGPRX4 alone, log [DCA] (M) -5.39794, Fig S3d-f, read-out: IP1 accumulation",36.1%
same,activation at 0.8 µM,"MRGPRX4 alone, log [DCA] (M) -6.09691, Fig S3d-f, read-out: IP1 accumulation",26.3%
same,activation at […],"MRGPRX4 alone, log [DCA] (M) -6.79588, Fig S3d-f, read-out: IP1 accumulation",23.7%
same,activation at 0.032 µM,"MRGPRX4 alone, log [DCA] (M) -7.49485, Fig S3d-f, read-out: IP1 accumulation",21.4%
same,activation at 30 µM,"MRGX4 + DCA, U73122 30uM, Fig S1e",8.48%
same,activation at 30 µM,"MRGX4 + DCA, buffer, Fig S1e",39.2%
same,activation at 100 µM,"MRGX4 + DCA, 100uM, U73122 30uM, Fig S1e, read-out: IP1 accumulation",16.7%
same,activation at 100 µM,"MRGX4 + DCA, 100uM, buffer, Fig S1e, read-out: IP1 accumulation",56.2%
same,activation at 80 µM,[1],38.3%
same,activation at 16 µM,[1],22.2%
same,activation at 3.2 µM,[1],13%
same,activation at 0.64 µM,[1],10.2%
same,activation at 0.128 µM,[1],9.26%
same,activation at 0.0256 µM,[1],9.64%
same,activation at 80 µM,[2],9.13%
same,activation at 16 µM,[2],7.51%
same,activation at 3.2 µM,[2],9.25%
same,activation at 0.64 µM,[2],7.7%
same,activation at 0.128 µM,[2],7.77%
same,activation at 0.0256 µM,[2],7.55%
same,activation at 100 µM,"SP-Flag-MRGX4-1D4, log [agonist] (M) -4, read-out: normalized IP1 accumulation",65.9%
same,activation at 20 µM,"SP-Flag-MRGX4-1D4, log [agonist] (M) -4.69897, read-out: normalized IP1 accumulation",34.9%
same,activation at 0.8 µM,"SP-Flag-MRGX4-1D4, log [agonist] (M) -6.09691, read-out: normalized IP1 accumulation",9.9%
same,activation at […],"SP-Flag-MRGX4-1D4, log [agonist] (M) -6.79588, read-out: normalized IP1 accumulation",8.52%
same,activation at 0.032 µM,"SP-Flag-MRGX4-1D4, log [agonist] (M) -7.49485, read-out: normalized IP1 accumulation",6.84%
same,activation at 100 µM,"SP-Flag-MRGX4-GFP10-1D4, log [agonist] (M) -4, read-out: normalized IP1 accumulation",66.1%
same,activation at 20 µM,"SP-Flag-MRGX4-GFP10-1D4, log [agonist] (M) -4.69897, read-out: normalized IP1 accumulation",33.2%
same,activation at 4 µM,"SP-Flag-MRGX4-GFP10-1D4, log [agonist] (M) -5.39794, read-out: normalized IP1 accumulation",15.5%
same,activation at 0.8 µM,"SP-Flag-MRGX4-GFP10-1D4, log [agonist] (M) -6.09691, read-out: normalized IP1 accumulation",8.34%
same,activation at […],"SP-Flag-MRGX4-GFP10-1D4, log [agonist] (M) -6.79588, read-out: normalized IP1 accumulation",7.34%
same,activation at 0.032 µM,"SP-Flag-MRGX4-GFP10-1D4, log [agonist] (M) -7.49485, read-out: normalized IP1 accumulation",7.17%
same,activation at 100 µM,"log [agonist] (M) -4, MRGX4-transfected, individual replicates, read-out: IP1 accumulation, dose-response (Figure 1a)",67.6%
same,activation at 11.111 µM,"log [agonist] (M) -4.95424, MRGX4-transfected, individual replicates, read-out: IP1 accumulation, dose-response (Figure 1a)",33.9%
same,activation at 1.2346 µM,"log [agonist] (M) -5.90849, MRGX4-transfected, individual replicates, read-out: IP1 accumulation, dose-response (Figure 1a)",14.9%
same,activation at 0.13717 µM,"log [agonist] (M) -6.86273, MRGX4-transfected, individual replicates, read-out: IP1 accumulation, dose-response (Figure 1a)",10.6%
